From patent US20230416239A1, “COMPOUNDS AND METHODS FOR TREATING A CYTOKINE-MEDIATED DISEASE” (CONSERVATOIRE NATIONAL DES ARTS ET MÉTIERS, priority 2020, published 2023)

Experiments:
TNFa/TNFRI interaction = TNFa/TNFRI interaction (Homo sapiens, UniProt P01375); assay: TNFa/TNFRI interaction displacement test; type: binding; settings: for Displacement (%): compounds at 50 μM, human TNFRI 100 ng/ml;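 as to Displacement EC50 TNFa in presence of compound: Difference: SPD304 reference at 20 µM final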
How it was run: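 Plates coated overnight at 4° C with human TNFRI (100 ng/ml) and blocked with 2% BSA, then test mixtures were incubated overnight at 4° C. Bound cytokine detected with biotinylated anti-cytokine antibody (2 h, 37° C) and avidin-HRP, read as OD at 450 nm.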

IL-6 = IL-6 (Homo sapiens, UniProt P05231); assay: Immunoassay binding test, IL-6 (gp130 receptor, IL-6Ra present); settings: IL-6Ra 200 ng/ml
How it was run: (§1)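 Compounds (final 100 to 0.78 μM) were preincubated 2 h at 37 °C with a fixed amount of cytokine; for IL-6, IL-6Ra was also present at 200 ng/ml final. Mixtures were then incubated overnight at 4 °C on receptor-coated plates. Bound cytokine was detected with biotinylated anti-cytokine antibody and avidin-HRP, read as OD at 450 nm.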

[1] = system: hepatic shock induced by LPS/D-Galactosamine; assay: LPS/D-Galactosamine induced lethal shock; type: in vivo, Balb/C mice; settings: 5 mg force-fed in DMSO eight hours before LPS/D-Galactosamine i.p.; 48 hours
Procedure: 7 week-old Balb/C mice (n=10 per group) were force-fed with 100 μl of a solution of DMSO containing 5 mg of compounds 33, 65 or 71 eight hours before receiving an intraperitoneal injection of 200 μl of PBS containing 0.2 μg of LPS and 20 mg of D-Galactosamine. A negative control group (vehicle) was force-fed with 100 μl of a solution of DMSO alone eight hours before to be injected with 200 μl of LPS/D-Galactosamine solution. Mice survival was monitored for 48 hours after the injection of LPS/D-Galactosamine.

TNFα = TNFα (Homo sapiens, UniProt P01375); assay: Immunoassay binding test, TNFa; settings: compounds 100 to 0.78 μM; TNFα 10 ng/ml, receptor 100 ng/ml; read-out: BINDING TNF IC50
How it was run: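 ELISA-type binding test: receptor-coated plates blocked with 2% BSA, then cytokine (six-point dilution series) preincubated 2 h at 37 °C and bound overnight at 4 °C. Detection used biotinylated anti-cytokine antibody and avidin-HRP, read as OD at 450 nm. For IL-6, IL-6Ra was present at 200 ng/ml final.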

IL-13 = IL-13 (Homo sapiens, UniProt P35225); assay: Immunoassay binding test, IL-13; settings: for IC50: IL-13 400 ng/ml, receptor 100 ng/ml, read-out: BINDING IL13 IC50
How it was run: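 Receptor-coated plates; compounds (100 to 0.78 μM final) preincubated 2 h at 37° C with fixed cytokine, then bound to receptor overnight at 4° C. Bound cytokine detected with biotinylated anti-cytokine antibody and avidin-HRP, OD 450 nm.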

IL-4 = molecular target: T1, IL-4 (Homo sapiens, UniProt P05112); assay: Immunoassay binding test, IL-4; settings: for IC50: IL-4 400 ng/ml, receptor 100 ng/ml, read-out: BINDING IL4 IC50
T1 sequence (P05112 25-153): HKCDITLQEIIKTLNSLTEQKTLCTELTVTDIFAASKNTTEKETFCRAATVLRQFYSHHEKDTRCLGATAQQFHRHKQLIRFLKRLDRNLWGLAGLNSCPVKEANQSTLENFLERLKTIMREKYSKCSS
How it was run: as §1

Chain of TNFα (P01375 77-233 limits assumed, species assumed): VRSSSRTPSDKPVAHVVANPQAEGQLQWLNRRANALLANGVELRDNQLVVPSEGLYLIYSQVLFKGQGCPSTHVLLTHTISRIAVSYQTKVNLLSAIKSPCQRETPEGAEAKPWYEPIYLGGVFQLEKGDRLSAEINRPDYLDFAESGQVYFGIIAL
Chain of TNFa/TNFRI interaction (P01375 77-233 limits assumed): as the sequence (P01375 77-233 limits assumed, species assumed) above
Chain of IL-6 (P05231 30-212, species assumed): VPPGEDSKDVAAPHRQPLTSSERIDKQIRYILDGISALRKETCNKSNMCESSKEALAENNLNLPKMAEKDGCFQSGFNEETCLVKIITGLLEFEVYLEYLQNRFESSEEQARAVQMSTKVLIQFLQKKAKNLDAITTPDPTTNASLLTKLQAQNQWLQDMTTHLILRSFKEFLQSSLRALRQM
Chain of IL-13 (P35225 25-146, species assumed): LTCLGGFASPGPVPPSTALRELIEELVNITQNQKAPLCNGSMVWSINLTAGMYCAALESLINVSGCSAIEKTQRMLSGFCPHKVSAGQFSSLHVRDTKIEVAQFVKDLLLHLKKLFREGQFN

Structure (SMILES)	Displacement (%) (TNFa/TNFRI interaction)	BINDING IL6 % Neutra at 100 μM (IL-6)	IC50 (TNFα)	BINDING IL13 % Neutra at 100 μM (IL-13)	IC50 (IL-13)	BINDING IL4 % Neutra at 100 μM (IL-4)	IC50 (IL-4)	Displacement EC50 TNFa in presence of compound: Difference (TNFa/TNFRI interaction; Compound EC50 minus SPD304 EC50)	survival [1]
O=S(=O)(c1ccccc1)n1cc(CN(CCCCCNC2CCCCC2)Cc2ccncc2)c2ccccc21 [Compound 33]	273%	−11.8%	4.6 µM	95.4%	10.5 µM	96%	4.1 µM	0.0116 µg/mL	100%
CN(CCOCCN(Cc1cccnc1F)Cc1cn(S(=O)(=O)c2ccccc2)c2ccccc12)C1CCCCC1 [Compound 65, N-(2-(2-(((2-fluoropyridin-3-yl)methyl)((1-(phenylsulfonyl)-1H-indol-3-yl)methyl)amino)ethoxy)ethyl)-N-methylcyclohexanamine]	224%	0%	5.9 µM	79.3%	> 50 µM	86.5%	5.5 µM	–	60%
O=S(=O)(c1ccccc1)n1cc(CN(CCCCNC2CCCC2)Cc2cccnc2F)c2ccccc21 [Compound 71, N′-cyclopentyl-N^4-((2-fluoropyridin-3-yl)methyl)-N^4-((1-(phenylsulfonyl)-1H-indol-3-yl)methyl)butane-1,4-diamine]	199%	2%	9.8 µM	89.7%	> 50 µM	92.4%	6 µM	–	60%
CCCCN(CCOCCN(Cc1cccnc1F)Cc1cn(S(=O)(=O)c2ccccc2)c2ccccc12)C1CCCCC1 [Compound 99, N-butyl-N-(2-(2-(((2-fluoropyridin-3-yl)methyl)((1-(phenylsulfonyl)-1H-indol-3-yl)methyl)amino)ethoxy)ethyl)cyclohexanamine]	173%	0%	8.2 µM	91.8%	> 50 µM	87.4%	4.4 µM	–	–
CCCCN(CCOCCN(Cc1cccnc1F)Cc1cn(S(=O)(=O)c2ccccc2)c2ccccc12)C1CCCCC1 [Compound 102]	138%	0%	7.2 µM	39.2%	> 25 µM	83.2%	6.3 µM	–	–
O=S(=O)(c1ccccc1)n1cc(CN(CCOCCNC2CCCC2)Cc2cccnc2F)c2ccccc21 [Compound 103, N-(2-(2-(((2-fluoropyridin-3-yl)methyl)((1-(phenylsulfonyl)-1H-indol-3-yl)methyl)amino)ethoxy)ethyl)cyclopentanamine]	159%	0%	10.2 µM	89.1%	38.9 µM	91.1%	10.5 µM	–	–
CN(CCOCCN(Cc1cccnc1F)Cc1cn(S(=O)(=O)c2ccccc2)c2ccccc12)C1CCCC1 [Compound 105, N-(2-(2-(((2-fluoropyridin-3-yl)methyl)((1-(phenylsulfonyl)-1H-indol-3-yl)methyl)amino)ethoxy)ethyl)-N-methylcyclopentanamine]	162%	0%	7.5 µM	74.3%	> 50 µM	91.2%	11.5 µM	–	–

Now from value to compound, other results behind:

Displacement (%) (TNFa/TNFRI interaction)	BINDING IL6 % Neutra at 100 μM (IL-6)	IC50 (TNFα)	BINDING IL13 % Neutra at 100 μM (IL-13)	IC50 (IL-13)	BINDING IL4 % Neutra at 100 μM (IL-4)	IC50 (IL-4)	Structure (SMILES)	Displacement EC50 TNFa in presence of compound: Difference (TNFa/TNFRI interaction; Compound EC50 minus SPD304 EC50)	survival [1]
26%	1%	> 50 µM	0%	–	74.5%	62.3 µM	CCn1cc(CN(CCCCN(C)C2CCCCC2)Cc2cccnc2F)c2ccccc21 [Compound 96]	–	–
153%	0%	10.5 µM	73.9%	> 50 µM	94.6%	6.6 µM	CCCN(CCOCCN(Cc1cccnc1F)Cc1cn(S(=O)(=O)c2ccccc2)c2ccccc12)C1CCCCC1 [Compound 97, N-(2-(2-(((2-fluoropyridin-3-yl)methyl) ((1-(phenylsulfonyl)-1H-indol-3-yl)methyl)amino)ethoxy)ethyl)-N-propylcyclohexanamine]	–	–
127%	0%	9.9 µM	90.2%	> 50 µM	93.4%	6.2 µM	CCCN(CCCCN(Cc1cccnc1F)Cc1cn(S(=O)(=O)c2ccccc2)c2ccccc12)C1CCCC1 [Compound 98]	–	–
128%	0%	8 µM	83.0%	> 50 µM	87.7%	8.6 µM	CCN(CCOCCN(Cc1cccnc1F)Cc1cn(S(=O)(=O)c2ccccc2)c2ccccc12)C1CCCCC1 [Compound 100]	–	–
152%	0%	17.4 µM	56.3%	35.5 µM	81.9%	7.9 µM	CCCN(CCOCCN(Cc1cccnc1F)Cc1cn(S(=O)(=O)c2ccccc2)c2ccccc12)C1CCCCC1 [Compound 101]	–	–
123%	0%	9.2 µM	79.8%	> 50 µM	88.2%	13.2 µM	CN(CCOCCN(Cc1cccnc1F)Cc1cn(S(=O)(=O)c2ccccc2)c2ccccc12)C1CCCC1 [Compound 104]	–	–
132%	0%	11.5 µM	32.1%	> 50 µM	84.1%	14.6 µM	CCCN(CCOCCN(Cc1cccnc1F)Cc1cn(S(=O)(=O)c2ccccc2)c2ccccc12)C1CCCC1 [Compound 106]	–	–
169%	0%	7.2 µM	66.1%	25.9 µM	74.9%	5.1 µM	CCN(CCOCCN(Cc1cccnc1F)Cc1cn(S(=O)(=O)c2ccccc2)c2ccccc12)C1CCCC1 [Compound 107, N-ethyl-N-(2-(2-(((2-fluoropyridin-3-yl)methyl)((1-(phenylsulfonyl)-1H-indol-3-yl)methyl)amino)ethoxy)ethyl)cyclopentanamine]	–	–
165%	0%	9.6 µM	58.8%	40.4 µM	76.7%	9.1 µM	CCCN(CCOCCN(Cc1cccnc1F)Cc1cn(S(=O)(=O)c2ccccc2)c2ccccc12)C1CCCC1 [Compound 108, N-(2-(2-(((2-fluoropyridin-3-yl)methyl)((1-(phenylsulfonyl)-1H-indol-3-yl)methyl)amino)ethoxy)ethyl)-N-propylcyclopentanamine]	–	–
207%	1%	11.5 µM	7.8%	–	86.3%	9.6 µM	CCCCN(CCOCCN(Cc1cccnc1F)Cc1cn(S(=O)(=O)c2ccccc2)c2ccccc12)C1CCCC1 [Compound 109, N-butyl-N-(2-(2-(((2-fluoropyridin-3-yl)methyl)((1-(phenylsulfonyl)-1H-indol-3-yl)methyl)amino)ethoxy)ethyl)cyclopentanamine]	–	–
